# From US6339042B1, “Herbicidal N-cyclohexadienyl heteroaryloxyacetamides” (American Cyanamid Co., priority 1999, dated 2002)
# Assays:
# Conditions in all cases: three weeks after treatment
# [1] = system: Hordeum vulgare; assay: Pre-emergence herbicidal evaluation, HORVW; assay type: in vivo
# Text: (§1) The treated pots are then placed on greenhouse benches, watered and cared for in accordance with conventional greenhouse procedures.
# [2] = system: Lolium perenne; assay: Pre-emergence herbicidal evaluation, LOLPE; assay type: in vivo
# Text: as §1
# [3] = system: Setaria viridis; assay: Post-emergence herbicidal evaluation, SETVI
# Experimental: (§2) The compounds of the invention are tested for pre- and post-emergence herbicidal activity.
# (§3) Each pot is examined three weeks after treatment and phytotoxicity is assessed according to the rating system set forth below.
# (§4) These acetone solutions are diluted with water and the resulting formulations applied at dosage levels equivalent of about 0.4 to 0.1 kg per hectare of test compound per pot. After spraying the plants are placed on greenhouse benches and are cared for in the usual manner, commensurate with conventional greenhouse practices.
# [4] = system: Amaranthus tuberculatus; assay: Pre-emergence herbicidal evaluation, AMATA; assay type: in vivo
# Text: as §1
# [5] = system: Apera spica venti; assay: Post-emergence herbicidal evaluation, APESV
# [6] = system: Galium aparine; assay: Pre-emergence herbicidal evaluation, GALAP; assay type: in vivo
# Text: as §1
# [7] = system: Hordeum vulgare; assay: Post-emergence herbicidal evaluation, HORVW
# [8] = system: Triticum aestivum; assay: Post-emergence herbicidal evaluation, TRZAW
# [9] = system: Apera spica venti; assay: Pre-emergence herbicidal evaluation, APESV; assay type: in vivo
# Text: as §1
# [10] = system: Oryza sativum; assay: Pre-emergence herbicidal evaluation, ORYSA; assay type: in vivo
# Text: as §1
# [11] = system: Amaranthus tuberculatus; assay: Post-emergence herbicidal evaluation, AMATA; assay type: in vivo
# [12] = system: Alopecurus myosuroides; assay: Pre-emergence herbicidal evaluation, ALOMY; assay type: in vivo
# Text: as §1
# [13] = system: Lolium perenne; assay: Post-emergence herbicidal evaluation, LOLPE
# Experimental: as §3, §4
# [14] = system: Zea mays; assay: Pre-emergence herbicidal evaluation, ZEAMX; assay type: in vivo
# Text: as §1
# [15] = system: Zea mays; assay: Post-emergence herbicidal evaluation, ZEAMX
# Experimental: as §3, §4
# [16] = system: Alopecurus myosuroides; assay: Post-emergence herbicidal evaluation, ALOMY
# [17] = system: Glycine max; assay: Pre-emergence herbicidal evaluation, GLXMA; assay type: in vivo
# Text: as §1
# [18] = system: Oryza sativum; assay: Post-emergence herbicidal evaluation, ORYSA
# [19] = system: Glycine max; assay: Post-emergence herbicidal evaluation, GLXMA
# [20] = system: Echinochloa crus-galli; assay: Pre-emergence herbicidal evaluation, ECHCG; assay type: in vivo
# Text: as §1
# [21] = system: Galium aparine; assay: Post-emergence herbicidal evaluation, GALAP
# Experimental: as §2, §3, §4
# [22] = system: Setaria viridis; assay: Pre-emergence herbicidal evaluation, SETVI; assay type: in vivo
# Text: as §1
# [23] = system: Triticum aestivum; assay: Pre-emergence herbicidal evaluation, TRZAW; assay type: in vivo
# Text: as §1
# [24] = system: Echinochloa crus-galli; assay: Post-emergence herbicidal evaluation, ECHCG
structure (smiles),measurement,setting,value
CCN(C(=O)COc1nnc(C(F)(F)F)s1)C1=CC(C)(C)CC(C)=C1 [Example 1],phytotoxicity rating HORVW,[1]; 0.100 kg/ha,2 (2 - Slight effect)
same,phytotoxicity rating HORVW,[1]; 0.200 kg/ha,2 (2 - Slight effect)
same,phytotoxicity rating HORVW,[1]; 0.400 kg/ha,4 (4 - Injury)
same,phytotoxicity rating HORVW,[1]; 0.800 kg/ha,4 (4 - Injury)
same,phytotoxicity rating LOLPE,[2]; 0.100 kg/ha,2 (2 - Slight effect)
same,phytotoxicity rating LOLPE,[2]; 0.200 kg/ha,3 (3 - Moderate effect)
same,phytotoxicity rating LOLPE,[2]; 0.400 kg/ha,9 (9 - Complete kill)
same,phytotoxicity rating LOLPE,[2]; 0.800 kg/ha,9 (9 - Complete kill)
same,phytotoxicity rating SETVI,[3]; 0.100 kg/ha,0 (0 - No effect)
same,phytotoxicity rating SETVI,[3]; 0.200 kg/ha,2 (2 - Slight effect)
same,phytotoxicity rating SETVI,[3]; 0.400 kg/ha,3 (3 - Moderate effect)
same,phytotoxicity rating AMATA,[4]; 0.100 kg/ha,0 (0 - No effect)
same,phytotoxicity rating AMATA,[4]; 0.200 kg/ha,3 (3 - Moderate effect)
same,phytotoxicity rating AMATA,[4]; 0.400 kg/ha,9 (9 - Complete kill)
same,phytotoxicity rating AMATA,[4]; 0.800 kg/ha,9 (9 - Complete kill)
same,phytotoxicity rating APESV,[5]; 0.100 kg/ha,5 (5 - Definite injury)
same,phytotoxicity rating APESV,[5]; 0.200 kg/ha,8 (8 - Approaching complete kill)
same,phytotoxicity rating APESV,[5]; 0.400 kg/ha,8 (8 - Approaching complete kill)
same,phytotoxicity rating GALAP,[6]; 0.100 kg/ha,0 (0 - No effect)
same,phytotoxicity rating GALAP,[6]; 0.200 kg/ha,4 (4 - Injury)
same,phytotoxicity rating GALAP,[6]; 0.400 kg/ha,4 (4 - Injury)
same,phytotoxicity rating GALAP,[6]; 0.800 kg/ha,4 (4 - Injury)
same,phytotoxicity rating HORVW,[7]; 0.100 kg/ha,0 (0 - No effect)
same,phytotoxicity rating HORVW,[7]; 0.200 kg/ha,0 (0 - No effect)
same,phytotoxicity rating HORVW,[7]; 0.400 kg/ha,0 (0 - No effect)
same,phytotoxicity rating TRZAW,[8]; 0.100 kg/ha,0 (0 - No effect)
same,phytotoxicity rating TRZAW,[8]; 0.200 kg/ha,0 (0 - No effect)
same,phytotoxicity rating TRZAW,[8]; 0.400 kg/ha,1 (1 - Trace effect)
same,phytotoxicity rating APESV,[9]; 0.100 kg/ha,6 (6 - Herbicidal effect)
same,phytotoxicity rating APESV,[9]; 0.200 kg/ha,8 (8 - Approaching complete kill)
same,phytotoxicity rating APESV,[9]; 0.400 kg/ha,9 (9 - Complete kill)
same,phytotoxicity rating APESV,[9]; 0.800 kg/ha,9 (9 - Complete kill)
same,phytotoxicity rating ORYSA,[10]; 0.100 kg/ha,0 (0 - No effect)
same,phytotoxicity rating ORYSA,[10]; 0.200 kg/ha,0 (0 - No effect)
same,phytotoxicity rating ORYSA,[10]; 0.400 kg/ha,3 (3 - Moderate effect)
same,phytotoxicity rating AMATA,[11]; 0.100 kg/ha,0 (0 - No effect)
same,phytotoxicity rating AMATA,[11]; 0.200 kg/ha,0 (0 - No effect)
same,phytotoxicity rating AMATA,[11]; 0.400 kg/ha,0 (0 - No effect)
same,phytotoxicity rating ALOMY,[12]; 0.100 kg/ha,2 (2 - Slight effect)
same,phytotoxicity rating ALOMY,[12]; 0.200 kg/ha,3 (3 - Moderate effect)
same,phytotoxicity rating ALOMY,[12]; 0.400 kg/ha,9 (9 - Complete kill)
same,phytotoxicity rating ALOMY,[12]; 0.800 kg/ha,7 (7 - Good herbicidal effect)
same,phytotoxicity rating LOLPE,[13]; 0.100 kg/ha,6 (6 - Herbicidal effect)
same,phytotoxicity rating LOLPE,[13]; 0.200 kg/ha,8 (8 - Approaching complete kill)
same,phytotoxicity rating LOLPE,[13]; 0.400 kg/ha,8 (8 - Approaching complete kill)
same,phytotoxicity rating ZEAMX,[14]; 0.100 kg/ha,0 (0 - No effect)
same,phytotoxicity rating ZEAMX,[14]; 0.200 kg/ha,0 (0 - No effect)
same,phytotoxicity rating ZEAMX,[14]; 0.400 kg/ha,2 (2 - Slight effect)
same,phytotoxicity rating ZEAMX,[14]; 0.800 kg/ha,4 (4 - Injury)
same,phytotoxicity rating ZEAMX,[15]; 0.100 kg/ha,0 (0 - No effect)
same,phytotoxicity rating ZEAMX,[15]; 0.200 kg/ha,0 (0 - No effect)
same,phytotoxicity rating ZEAMX,[15]; 0.400 kg/ha,0 (0 - No effect)
same,phytotoxicity rating ALOMY,[16]; 0.100 kg/ha,6 (6 - Herbicidal effect)
same,phytotoxicity rating ALOMY,[16]; 0.200 kg/ha,6 (6 - Herbicidal effect)
same,phytotoxicity rating ALOMY,[16]; 0.400 kg/ha,8 (8 - Approaching complete kill)
same,phytotoxicity rating GLXMA,[17]; 0.100 kg/ha,0 (0 - No effect)
same,phytotoxicity rating GLXMA,[17]; 0.200 kg/ha,0 (0 - No effect)
same,phytotoxicity rating GLXMA,[17]; 0.400 kg/ha,2 (2 - Slight effect)
same,phytotoxicity rating GLXMA,[17]; 0.800 kg/ha,2 (2 - Slight effect)
same,phytotoxicity rating ORYSA,[18]; 0.100 kg/ha,0 (0 - No effect)
same,phytotoxicity rating ORYSA,[18]; 0.200 kg/ha,0 (0 - No effect)
same,phytotoxicity rating ORYSA,[18]; 0.400 kg/ha,3 (3 - Moderate effect)
same,phytotoxicity rating GLXMA,[19]; 0.100 kg/ha,4 (4 - Injury)
same,phytotoxicity rating GLXMA,[19]; 0.200 kg/ha,5 (5 - Definite injury)
same,phytotoxicity rating GLXMA,[19]; 0.400 kg/ha,4 (4 - Injury)
same,phytotoxicity rating ECHCG,[20]; 0.100 kg/ha,4 (4 - Injury)
same,phytotoxicity rating ECHCG,[20]; 0.200 kg/ha,8 (8 - Approaching complete kill)
same,phytotoxicity rating ECHCG,[20]; 0.400 kg/ha,9 (9 - Complete kill)
same,phytotoxicity rating ECHCG,[20]; 0.800 kg/ha,9 (9 - Complete kill)
same,phytotoxicity rating GALAP,[21]; 0.100 kg/ha,0 (0 - No effect)
same,phytotoxicity rating GALAP,[21]; 0.200 kg/ha,0 (0 - No effect)
same,phytotoxicity rating GALAP,[21]; 0.400 kg/ha,1 (1 - Trace effect)
same,phytotoxicity rating SETVI,[22]; 0.100 kg/ha,4 (4 - Injury)
same,phytotoxicity rating SETVI,[22]; 0.200 kg/ha,7 (7 - Good herbicidal effect)
same,phytotoxicity rating SETVI,[22]; 0.400 kg/ha,8 (8 - Approaching complete kill)
same,phytotoxicity rating SETVI,[22]; 0.800 kg/ha,8 (8 - Approaching complete kill)
same,phytotoxicity rating TRZAW,[23]; 0.100 kg/ha,0 (0 - No effect)
same,phytotoxicity rating TRZAW,[23]; 0.200 kg/ha,0 (0 - No effect)
same,phytotoxicity rating TRZAW,[23]; 0.400 kg/ha,2 (2 - Slight effect)
same,phytotoxicity rating TRZAW,[23]; 0.800 kg/ha,4 (4 - Injury)
same,phytotoxicity rating ECHCG,[24]; 0.100 kg/ha,2 (2 - Slight effect)
same,phytotoxicity rating ECHCG,[24]; 0.200 kg/ha,4 (4 - Injury)
same,phytotoxicity rating ECHCG,[24]; 0.400 kg/ha,7 (7 - Good herbicidal effect)
